The target of this assay is T1, EcoCAγ (Escherichia coli, UniProt P0A9W9).
T1 construct: gene yrdA; recombinant full-length WP_009008373.1, N-terminal His-tag, 72 extra N-terminal residues versus YrdA
T1 sequence (P0A9W9 1-184): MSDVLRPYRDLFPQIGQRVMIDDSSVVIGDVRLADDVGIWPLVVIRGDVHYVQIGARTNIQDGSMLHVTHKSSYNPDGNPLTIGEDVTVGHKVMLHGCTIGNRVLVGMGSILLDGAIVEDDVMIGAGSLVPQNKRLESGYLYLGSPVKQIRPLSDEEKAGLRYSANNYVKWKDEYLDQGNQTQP
Kind of assay: biochemical. As for the experimental part:
The CO2 hydration activity performed by the EcoCAγ was monitored using an Applied Photophysics stopped-flow instrument. […] To determine the kinetic parameters by Lineweaver-Burk plots and the inhibition constants, a concentration of CO2 between 1.7 to 17 mM was used. At least six measurements of the original 5–10% reaction were used to assess the initial velocity for each inhibitor. The uncatalyzed rates were identically determined and detracted from the total observed rates. Stock inhibitor solutions (10–100 mM) were prepared in distilled-deionized water and dilutions up to 0.01 mM were done with the buffer test. Inhibitor and enzyme solutions were preincubated together for 15 min at room temperature prior to assay, in order to allow for the formation of the E-I complex or for the eventual active site mediated hydrolysis of the inhibitor. The inhibition constants were obtained by non-linear least-squares methods using PRISM 6 and the Cheng-Prusoff equation, as reported earlier[12]^,[14]^,[68], and represent the mean from at least three different determinations. h CAI and hCA II were recombinant enzymes obtained in-house. The synthetic E. coli gene encoding for the EcoCAγ (Accession number: WP_009008373.1) was synthesised by the Invitrogen GeneArt (ThermoFisher Scientific), a company specialised in gene synthesis, and cloned into the expression vector pET100D-Topo/γ-CA. Briefly, the gene was designed to produce the recombinant EcoCAγ as fusion proteins with a tag containing nucleotides encoding for six histidines (His-Tag) at the amino terminus of neosynthetized recombinant protein. Competent E. coli BL21 (DE3) codon plus cells (Agilent) were transformed as described by Del Prete et al.. Isopropyl β-D-1-thiogalactopyranoside (IPTG) at the concentration of 1 mM was added to the cellular culture to overexpress the recombinant EcoCAγ. After growth, the cells were harvested and disrupted by sonication. Cellular extract was purified using a nickel affinity column (His-Trap FF), which allows the interaction between the matrix functionalised with Ni^2+ ions and the His-Tag at the N-terminus of the protein. The HisTrap column (1 ml) was equilibrated with 20 ml equilibration buffer (50 mM Tris, 20 mM imidazole and 150 mM sodium chloride, pH 7.5) at 1 ml/min. The supernatant from the cellular lysate was loaded onto the column at 1 ml/min, and eluted from the column by fluxing imidazole (300 mM) at a flow of 0.5 ml/min in a buffer composed of 50 mM Tris and 300 mM sodium chloride, pH 7.5. The recovered EcoCAγ was 90% pure. The protein quantification was carried out by Bradford method (BioRAD).

Molecules are shown by their SMILES. Read-outs that look alike come from different tables or passages of the source.

`NS(=O)(=O)c1cccc(S(N)(=O)=O)c1` [compound 3] returned a Ki of 0.246 µM.

Consider `NS(=O)(=O)c1ccc(O)cc1` [compound 15], for which the Ki was 1.01 µM. Turning to `Nc1cccc(S(N)(=O)=O)c1` [compound 1], affinity (inhibitor) was put at a Ki of 0.314 µM. `Nc1ccc(S(=O)(=O)Nc2nnc(S(N)(=O)=O)s2)cc1` [compound 20]: the Ki came to 0.883 µM. In turn, `NS(=O)(=O)c1ccc(C(=O)O)cc1` [compound 18] came in with a Ki of 2.06 µM. The same measure, in the same setting: the figure for `NS(=O)(=O)c1cc(Cl)cc(Cl)c1O` [compound 10] is 2.58 µM; for `NS(=O)(=O)c1ccc(CCO)cc1` [compound 17] it is 1.97 µM; for `Nc1ccc(S(=O)(=O)Nc2ccc(S(N)(=O)=O)cc2)cc1` [compound 22] it is 3.5 µM. On the same count and under the same terms, for `Nc1nnc(S(N)(=O)=O)s1` [compound 13] the value was 0.197 µM; for `Nc1cc(C(F)(F)F)c(S(N)(=O)=O)cc1S(N)(=O)=O` [compound 11], 1.78 µM. Same read-out and setting: for `Nc1ccc(S(N)(=O)=O)cc1Br` [compound 9] the value was 0.718 µM; for `Cn1nc(S(N)(=O)=O)sc1=N` [compound 14], 0.712 µM. Take `Nc1ccc(S(=O)(=O)NCc2ccc(S(N)(=O)=O)cc2)cc1` [compound 23]: the Ki stood at 4.04 µM. The molecule `NS(=O)(=O)c1ccc(CCNS(=O)(=O)c2ccc([N+](=O)[O-])cc2CO)cc1` [compound 21] displayed a Ki (inhibitor) of 0.819 µM. As for `NCCc1ccc(S(N)(=O)=O)cc1` [compound 6], the affinity corresponds to a Ki of 0.622 µM. Still for that read-out and setting: the figure for `Nc1ccc(S(N)(=O)=O)cc1F` [compound 7] is 0.605 µM; for `Nc1ccc(S(=O)(=O)NCCc2ccc(S(N)(=O)=O)cc2)cc1` [compound 24] it is 4.26 µM; for `Nc1ccc(S(N)(=O)=O)cc1Cl` [compound 8] it is 0.671 µM. Still for that read-out and setting: for `NS(=O)(=O)c1ccc(CO)cc1` [compound 16] the value was 4.24 µM; for `Nc1cc(Cl)c(S(N)(=O)=O)cc1S(N)(=O)=O` [compound 12], 1.95 µM; for `Nc1nccc(Nc2ccc(S(N)(=O)=O)cc2)n1` [compound 19], 1.89 µM. On the same count and under the same terms, the figure for `Cc1ccc(S(N)(=O)=O)cc1` [compound 4] is 0.221 µM.

By Ki is commonly meant the dissociation constant of the complex between target and ligand, obtained from inhibition or displacement. Low values mean higher affinity, high ones lower affinity.

For the origin of these results see PMC7470111, “Escherichia coli γ-carbonic anhydrase: characterisation and effects of simple aromatic/heterocyclic sulphonamide inhibitors” (Journal of Enzyme Inhibition and Medicinal Chemistry, 2020).
